# Experimental data: patent US5712274A, “Thienotriazolodiazepine compounds and their pharmaceutical use” (Yoshitomi Pharmaceutical Industries, Ltd., priority 1995, dated 1998)
# Legend:
# [1] = system: lipopolysaccharide (LPS)-induced adhesion of leukocytes; experiment: Effect on lipopolysaccharide (LPS)-induced adhesion of leukocytes; assay type: in vivo, BALB/c mice; conditions: 6 hr after LPS
# Source text: Effect on lipopolysaccharide (LPS)-induced adhesion of leukocytes
# It has been reported that, by the administration of LPS to mice, an adhesion molecule, Mac-1-dependent leukocyte adhesion is induced, the leukocytes infiltrate into lung, liver and so on, and in result the number of peripheral blood leukocytes reduces (Morisaki et al., Clin. Immunol. Immunopathol., 61, 365-375, 1991). The effect on LPS-induced leukocyte adhesion was investigated by taking the reduction of peripheral blood leukocytes as an indicator of leukocyte adhesion.
# LPS solution (50 ng/ml in saline, 0,5 ml/mouse) was injected into peritoneal cavity of BALB/c mice on day 0. Six hr after the LPS injection, the number of peripheral blood leukocytes was counted with an automatic blood cell counter. Test compounds were suspended in 0.5% hydroxypropylmethylcellulose solution and administered p.o. (0.1 ml/10 g body weight) on days -4 to 0.
# glomerulonephritis = experiment: Effect on glomerulonephritis in mice (anti-GBM antiserum); assay type: in vivo, female C57BL/6 mice; conditions: 12 days after anti-GBM antiserum, 0-5 points
# Description: Effect on glomerulonephritis in mice
# Rabbit immunoglobulin G solution (4 mg/ml in saline) was mixed with Freund's complete adjuvant at a ratio of 1:1 and the emulsion was prepared. The emulsion was injected into peritoneal cavity of female C57BL/6 mice (0.25 ml/mouse). After 5 days, rabbit anti-mouse glomerular basement membrane (GBM) antiserum obtained by the method of Nagai et al. (Japan. J. Pharmacol., 32, 1117, 1982) was administered i.v. (0.08 ml/mouse). […] Test compounds were suspended in 0.5% hydroxypropylmethylcellulose (HPMC) solution and administered p.o. (0.1 ml/10 g body weight) for 13 days beginning on the day of anti-GBM ant-serum injection.
# TNBS-induced colitis = experiment: Effect on TNBS-induced colitis model in rats (oral administration); assay type: in vivo, SD rats; conditions: for Intestinal weight (mean ± S.D.) / MPO activity (mean ± S.D.): TNBS, 7 days
# Description: Effect on trinitrobenzenesufonic acid (TNBS)-induced colitis model in rats
# Colitis was induced by intrarectal injection of TNBS solution (60 mg/ml in 50% EtOH, 500 μl/rat) to SD rats. Seven days later, rats were sacrificed and large intestine (8 cm from anus) was cut off and weighed. Myeloperoxidase (MPO) activity in the intestinal tissue was measured as follows and taken as an indicator of leukocyte infiltration: the intestinal tissue was homogenized and a cycle of freeze-thawing of the tissue was repeated 3 times. The supernatant obtained by centrifugation was assayed for MPO activity with substrate for peroxidase (o-phenylenediamine). MPO activity in the supernatant was calculated with the commercial MPO as a standard. The increases in intestinal weight and MPO activity as described above were taken as indicators of colitis. Test compound was suspended in 0.5% hydroxypropylmethylcellulose solution and administered p.o. (0.1 ml/10 g body weight) for 5 days beginning on the day of TNBS injection.
# [2] = system: oxazolone-induced ear edema; experiment: Effect on oxazolone-induced ear edema in mice; assay type: in vivo; conditions: sensitized mice, 24 hr after challenge
# Description: Effect on oxazolone-induced ear edema in mice.
# Mice were sensitized by applying 50 μl of oxazolone solution (50 mg/ml in acetone) to their shaved abdomen on day 0. On day 7, 5 μl of oxazolone solution was applied to each surface of the right ear. After 24 hr (day 8), the right and left ears were cut off with a puncher of 6 mm in diameter and weighed with an electronic reading balance. The difference in weight between the oxazolone-treated ear (right) and untreated ear (left) was taken to reflect the extent of ear edema. Test compounds were suspended in 0.5% hydroxypropylmethycellulose solution and administered p.o. (0.1 ml/10 g body weight) on days 0 to 4 (once a day) and day 7 (twice a day).
# ELAM-1 = experiment: Inhibitory effect on TNF-α-induced expression of ELAM-1 in HUVECs; assay type: cell-based; conditions: Homo sapiens, HUVEC; HUVECs, TNF-α 100 U/ml, 5 hr; read-out: Inhibitory effect (IC50) on ELAM-1 expression
# Description: (§1) Inhibitory effect on expression of VCAM-1 and ELAM-1 in human umbilical vein-derived endothelial cells (HUVECs)
# (§2) HUVECs were suspended in 199 medium containing 20% FCS, 20 μg/ml endothelial cell growth factor derived from bovine brain, and 100 μg/ml heparin, plated into 96-well microculture plates coated with collagen, and cultured at 37° C. in 5% CO2. When cells were grown to confluence, the cells received tumour necrosis factor (TNF)-α (20 U/ml for VCAM-1 expression, 100 U/ml for ELAM-1 expression) and cultured for 5 hr. After the cells were washed once with 199 medium, mouse anti-human VCAM-1 monoclonal antibody (2 μg/ml) or rat anti-human ELAM-1 monoclonal antibody (2 μg/ml) was added, and the cells were incubated for 1 hr at room temperature. After the cells were washed twice, peroxidase-conjugated anti-mouse immunoglobulin antibody or anti-rat immunoglobulin antibody was added, and the cells were incubated for 1 hr at room temperature. After the cells were washed 3 times, 2,2'-azino-bis(3-ethylbenzothiazolone-6-sulfonic acid) was added. After the plates were stood for 15 min at room temperature, absorbance at 405 nm with a reference wave length of 490 nm was measured with a 96-well microplate reader and was regarded as a indicator of VCAM-1 or ELAM-1 expression.
# VCAM-1 = experiment: Inhibitory effect on TNF-α-induced expression of VCAM-1 in HUVECs; assay type: cell-based; conditions: Homo sapiens, HUVEC; HUVECs, TNF-α 20 U/ml, 5 hr; read-out: Inhibitory effect (IC50) on CAM-1 expression
# Description: as §1, §2
compound,measurement,setting,value
"CNC(=O)C[C@@H]1N=C(c2ccc(Cl)cc2)c2c(sc(C)c2C)-n2c(C)nnc21 [Example 1, (S)-N-methyl-4-(4-chloro-phenyl)-2,3,9-trimethyl-6H-thieno[3,2-f][1,2,4]triazolo[4,3-a]-[1,4]diazepine-6-acetamide 1/4 hydrate]",Number of peripheral blood leukocytes (mean ± S.D.),[1]; 0.3 mg/kg/day p.o.,32 ± 5 × 100/μl
same,Number of peripheral blood leukocytes (mean ± S.D.),[1]; 1 mg/kg/day p.o.,50 ± 15 × 100/μl
same,Number of peripheral blood leukocytes (mean ± S.D.),[1]; 3 mg/kg/day p.o.,61 ± 13 × 100/μl
same,Score (mean ± S.D.) of protein level in urine,glomerulonephritis; 1 mg/kg/day p.o.,2.56 ± 0.53
same,Score (mean ± S.D.) of protein level in urine,glomerulonephritis; 3 mg/kg/day p.o.,2.22 ± 0.67
same,Intestinal weight (mean ± S.D.),TNBS-induced colitis; 0.3 mg/kg/day p.o.,1328.6 ± 1411.4 mg
same,MPO activity (mean ± S.D.),TNBS-induced colitis; 0.3 mg/kg/day p.o.,1.389 ± 2.806 U/ml
same,Intestinal weight (mean ± S.D.),TNBS-induced colitis; 1 mg/kg/day p.o.,574.2 ± 93.1 mg
same,MPO activity (mean ± S.D.),TNBS-induced colitis; 1 mg/kg/day p.o.,0.221 ± 0.020 U/ml
same,Effect on intestinal weight and leukocyte infiltration in colitis (in words),"TNBS-induced colitis; p.o., Tables 6A and 6B",significantly inhibit the increase in intestinal weight and the leukocyte infiltration caused by colitis in rats
same,Increase in ear weight (mean ± S.D.),[2]; 0.1 mg/kg p.o.,16.3 ± 1.0 mg
same,Increase in ear weight (mean ± S.D.),[2]; 0.3 mg/kg p.o.,15.0 ± 0.6 mg
same,Increase in ear weight (mean ± S.D.),[2]; 1 mg/kg p.o.,14.2 ± 0.8 mg
same,IC50,ELAM-1,52 nM
same,IC50,VCAM-1,25 nM
